Measured values: US9175077B2, “Nucleic acids encoding biologically active polypeptides derived from a novel early stage pregnancy factor designated maternin (MA)” (NOBEL BIOSCIENCES LLC, priority 1999, dated 2015)
“Also recorded” adds a separate entry of the source.

Assays:
[1] = system: human bone marrow stem cells; assay: Engraftment of ex vivo expanded hematopoietic progenitor cells in irradiated rats; parameters: species or system Sprague Dawley rats; settings: Rat S. Dawley irradiated 450 RAD; n = 3
From the text: (§1) The inventors also investigated the effect of MA on engraftment of human bone marrow stem cells [CD34^+, CD38″ cells, long term cultures after 4 mos, and stromal free cultures] ex vivo expanded hematopoietic progenitor cells in Rats irradiated [Sprague DAwley, 450 Rad] and immunodeficient mice [SCID or BNX-XID mice].
(§2) Measurement of short-term hematopoietic reconstitution kinetics and long term repopulating ability. Just prior to implantation, SCID, BNX-XID-immunodeficient mice and Sprague Dawley rats were exposed to 450 rad total body γ-irradiation. […] But the SCID and BNX-XID immunodeficient mice were repopulated by the cultured, treated human cells.

[2] = system: human bone marrow stem cells; assay: Engraftment of ex vivo expanded hematopoietic progenitor cells in BNX-XID mice
From the text: as §1, §2

hCG receptor = target: T1, hCG receptor (Homo sapiens, UniProt P22888); assay: hCG receptor binding
T1 construct: host or cells: unspecified cells
T1 sequence (P22888 27-699): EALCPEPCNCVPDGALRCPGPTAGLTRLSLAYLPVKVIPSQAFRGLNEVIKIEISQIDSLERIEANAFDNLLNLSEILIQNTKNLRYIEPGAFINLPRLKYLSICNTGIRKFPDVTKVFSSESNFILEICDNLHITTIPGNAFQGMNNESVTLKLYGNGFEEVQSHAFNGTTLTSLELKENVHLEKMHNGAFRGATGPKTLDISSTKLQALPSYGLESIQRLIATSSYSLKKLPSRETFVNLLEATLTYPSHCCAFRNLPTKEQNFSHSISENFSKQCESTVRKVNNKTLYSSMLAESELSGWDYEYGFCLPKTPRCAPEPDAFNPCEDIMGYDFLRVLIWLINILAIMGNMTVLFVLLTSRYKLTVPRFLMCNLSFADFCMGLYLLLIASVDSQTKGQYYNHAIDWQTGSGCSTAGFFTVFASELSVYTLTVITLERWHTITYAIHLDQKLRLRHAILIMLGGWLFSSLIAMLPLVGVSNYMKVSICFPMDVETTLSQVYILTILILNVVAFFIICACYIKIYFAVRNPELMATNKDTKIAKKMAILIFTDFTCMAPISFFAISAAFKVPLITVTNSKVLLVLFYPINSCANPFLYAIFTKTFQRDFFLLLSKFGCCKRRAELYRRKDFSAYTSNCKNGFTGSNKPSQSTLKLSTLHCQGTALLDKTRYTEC
From the text: In this regard, unusual β-hCG gene transcripts have been known for several years,^207 and as noted above, among the several related heterodimeric glycoprotein hormones, only β-hCG has multiple genes.

[3] = system: primary human tumor cells; assay: Short-term cultured primary human tumor cells, growth and apoptosis; assay type: cell-based; settings: 200 ng/ml; 3 days culture; 10% serum
From the text: Because cell lines might be more susceptible to growth inhibition and apoptosis, the effects of MA on short-term cultured human tumor cells were investigated. The cells were obtained from biopsied specimens and immediately cultured (primary cultures). The results were similar to the results with tumor cell lines. […] FIG. 3, Panels A and B are representative results with primary breast and prostate carcinomas respectively. These pro-apoptotic effects of MA on human tumor cells were with 10% serum rather than the lower concentrations sometimes used to make cells more susceptible to apoptosis.
More extensive studies of primary human tumor cells were carried out utilizing confocal microscopy.
With the exception of the kidney carcinoma, which was a biopsy sample direct from the tumor, the samples were from pleural effusions which developed after metastasis to the lung. The breast, prostate, and colon carcinomas were freshly obtained and immediately cultured, whereas the lung and kidney carcinomas went through 22 and 18 passes respectively before they were used in these studies. All cells were examined after 3 days culture in the presence or absence of MA (200 ng/ml) or other treatments. […]

[4] = system: spontaneous breast carcinomas; assay: Spontaneous breast carcinomas in Sprague-Dawley rats; assay type: in vivo; settings: 2 weeks of therapy
From the text: As shown, MA killed a wide variety of human tumor cells in vitro and in vivo killed xenotransplanted human tumors in immune deficient mice. We wanted to be certain that the in vivo results would not be limited to immune deficient mice. […] Therefore, we tested the effects of MA on: • spontaneous fibrosarcomas which developed in three older FVB/N mice; and • spontaneous breast carcinomas which developed in three older Sprague-Dawley rats.
Similar results were obtained with the spontaneous mammary carcinomas of rats.

gliobastoma HTB16 = assay: Confocal microscopy apoptosis; assay type: cell-based, human; settings: 200 ng/ml; 24 hrs
Procedure: (§3) More extensive studies of the effects of MA and with truncated synthetic forms of MA (MAS) on a wide range of other human tumor cells were carried out using three-dimensional confocal microscopy. Cells were cultured and then seeded onto gelatinized glass chamber slides and incubated 24 hrs with the various test materials. The slides were then fixed with formalin and treated serially with Triton X-100 (0.01%) for 10 min at 25°, 0.4 ug/ml fluorescein isothiocyanate (FITC)-labeled Phalloidin (Sigma Chem. Co.) at room temperature for 30 min to bind actin, washed with PBS and the DNA stained with Propidium iodide (PI) (0.5 ug·ml) (Sigma Chemical Co.), for 15 min. The stained slides were washed and mounted on slow fade (Molecular Probes, Inc., Eugene, Oreg.) and examined through a dual emission filter XF53 (Omega, Inc., Brattlesboro, Va.) by fluorescent microscopy. In some experiments only DNA staining was performed. In these instances Triton X-100 was not used. The slides were stained with PI and examined for cell morphology and chromatin degradation under 3D confocal microscopy.

[5] = system: leukemia and lymphoma cell lines: HUT78, DAVDI, HG, SULTAN, T-cell lymphoma; assay: Confocal microscopy apoptosis; assay type: cell-based, human; settings: 200 ng/ml; 24 hrs
Procedure: as §3

carcinoma of the colon = assay: Confocal microscopy apoptosis; assay type: cell-based, human; settings: 200 ng/ml; 24 hrs
Procedure: as §3

[6] = system: carcinoma of the lung HTB184; assay: Confocal microscopy apoptosis; assay type: cell-based, human; settings: 200 ng/ml; 24 hrs
Procedure: as §3

fibrosarcoma 4TB166 = assay: Confocal microscopy apoptosis; assay type: cell-based, human; settings: 200 ng/ml; 24 hrs
Procedure: as §3

[7] = system: prostate carcinoma cell line PC4; assay: Confocal microscopy apoptosis; assay type: cell-based, human; settings: 200 ng/ml; 24 hrs
Procedure: as §3

[8] = system: prostate carcinoma cell line PC3; assay: Confocal microscopy apoptosis; assay type: cell-based, human; settings: 200 ng/ml; 24 hrs
Procedure: as §3

[9] = system: carcinoma of the pancreas CRL 1682; assay: Confocal microscopy apoptosis; assay type: cell-based, human; settings: 200 ng/ml; 24 hrs
Procedure: as §3

Ewing's sarcoma = assay: Confocal microscopy apoptosis; assay type: cell-based, human; settings: 200 ng/ml; 24 hrs
Procedure: as §3

melanoma HTB67 = assay: Confocal microscopy apoptosis; assay type: cell-based, human; settings: 200 ng/ml; 24 hrs
Procedure: as §3

[10] = system: carcinoma of the kidney HTB46; assay: Confocal microscopy apoptosis; assay type: cell-based, human; settings: 200 ng/ml; 24 hrs
Procedure: as §3

KS Y-1 cells = assay: Confocal microscopy apoptosis; assay type: cell-based, human; settings: 200 ng/ml; 24 hrs
Procedure: as §3

[11] = system: carcinoma of the breast HTB124; assay: Confocal microscopy apoptosis; assay type: cell-based, human; settings: 200 ng/ml; 24 hrs
Procedure: as §3

[12] = system: human carcinoma and sarcoma cells (PC3, KS Y-1); assay: Xenotransplanted human tumors in immunodeficient mice; assay type: in vivo
Procedure: In the first set of experiments, MA was tested against tumors formed by xenotransplantation of various human carcinoma and sarcoma cells in immunodeficient mice. […] […] Three different synthetic forms of MA were used: full length (MAS3) and the previously described MAS1 and MAS2 (Panel C).

[13] = system: human bone marrow stem cells; assay: Engraftment of ex vivo expanded hematopoietic progenitor cells in SCID mice
From the text: as §1, §2

VVCNYRDVRFESIRLPGCPRGVNPVVSYAVALSCQ [MA]
CD4 [1]: 1%
CD14 [1]: 1%
CD34 [1]: 40%
CD4 [2]: 3%
CD14 [2]: 1%
CD34 [2]: 37%
binding to the hCG receptor (hCG receptor): does not bind
growth inhibition and apoptosis of primary human tumor cells [3]: inhibited growth and induced apoptosis; also recorded: Rapid induction of apoptosis
tumor outcome [4]: complete tumor regression; also recorded: partial tumor regression
induction of apoptosis (gliobastoma HTB16): induced apoptosis
induction of apoptosis [5]: induced apoptosis
induction of apoptosis (carcinoma of the colon): induced apoptosis
induction of apoptosis [6]: induced apoptosis
induction of apoptosis (fibrosarcoma 4TB166): induced apoptosis
induction of apoptosis [7]: induced apoptosis
induction of apoptosis [8]: induced apoptosis
induction of apoptosis [9]: induced apoptosis
induction of apoptosis (Ewing's sarcoma): induced apoptosis
induction of apoptosis (melanoma HTB67): induced apoptosis
induction of apoptosis [10]: induced apoptosis
induction of apoptosis (KS Y-1 cells): induced apoptosis
induction of apoptosis [11]: induced apoptosis
tumor regression ([12]; 300-500 ng/day (about 100-200 pmoles) for 2 to 3 weeks): complete tumor regression
effect on xenotransplanted tumor (qualitative) ([12]; controls at equivalent and higher molar concentrations): marked tumor regression; also recorded: KS tumor abolished
inhibition of tumor growth in vivo ([12]; mouse, in vivo): 60-100%
blood vessel formation / angiogenesis ([12]; thin sections of the tumors): reduction in blood vessel formation
CD4 [13]: 2%
CD14 [13]: 2%
CD34 [13]: 38%
